Consider one sequence from patent US11505592B2, “Diagnosis and therapy of multiple sclerosis” (PRINDEX S.R.L., priority 2015, dated 2022).

Test [1] deals with 5HT2a receptor downstream signaling in MO3-13 cells. In words: Western blotting of proteins downstream of the 5HT2a receptor in MO3-13 cells. Format: cell-based, human. The procedure: The same membrane was also incubated with α-Tubulin antibody to show the protein loading.
Western blotting analysis of DUOX1/2 expression levels in MO3-13 cells harvested for 18 h in medium containing 0.2% FBS, preincubated with DDSK (50 uM) for 30 min in serum-free medium and then stimulated for 30 min with IgG (200 μg/ml) purified from serum of Control (IgCtr) or MS (IgMS) patients.
Western blotting analysis of P-ERK1/2 expression levels in MO3-13 cells harvested for 18 h in medium containing 0.2% FBS, preincubated with DDSK (50 uM) for 30 min in serum-free medium and then stimulated for 30 min with IgG (200 μg/ml) purified from serum of Control (Ig Ctr) or MS (IgMS) patients.
Western blotting analysis of NOX3 expression levels in MO3-13 cells harvested for 18 h in medium containing 0.2% FBS, preincubated with DDSK (50 uM) for 30 min in serum-free medium and then stimulated for30 min with IgG (200 μg/ml) purified from serum of Control (IgCtr) or MS (IgMS) patients.
Western blotting analysis of H-Ras expression levels in MO3-13 cells harvested for 18 h in medium containing 0.2% FBS, preincubated with DDSK (50 uM) for 30 min in serum-free medium and then stimulated for30 min with IgG (200 μg/ml) purified from serum of Control (Ig Ctr) or MS (IgMS) patients. The same membrane was incubated with α-Tubulin antibody to show the protein loading.
Total cells lysates were obtained in RIPA buffer (50 mM Tris-HCl, pH 7.5, NaCl 150 mM, 1% NP40, 0.5% deoxycholate, 0.1% SDS) containing 2.5 mM Na-pyrophosphate, 1 mM β-glycerophosphate, 1 mM NaVO4, 1 mM NaF, 0.5 mM PMSF, and a cocktail of protease inhibitors (Roche, USA). The cells were kept for 15 min at 4° C. and disrupted by repeated aspiration through a 21-gauge needle. Cell lysates were centrifuged for 10 min at 13000 rpm and the pellets were discarded. Fifty micrograms of total proteins were subjected to SDS-PAGE under reducing conditions. […] Membranes were placed in 5% non-fat milk in […], 0.5% Tween 20 (TBST) at 4° C. for 2 h to block the nonspecific binding sites. Filters were incubated with specific antibodies before being washed three times in TBST and then incubated with a peroxidase-conjugated secondary antibody (Santa Cruz). After washing with TBST, peroxidase activity was detected with the ECL system (GE-Healthcare, UK).
The filters were also probed with an anti α-tubulin antibody (Sigma, USA). […] Densitometric values were normalized to α-tubulin.

Test [2] has as its system MS IgG. Kind of test: Indirect ELISA of MS IgG binding to receptor peptides. More on the design: species or system human. The note with it: 200 μg immunoglobulins. The procedure:
FIG. 6: Dose-response curves of the interaction between MS sera and DDSK peptide. (A) Sera of Multiple Sclerosis patients and Control (control group is defined in material and method below) (200 μg) were incubated with different concentrations (50-100-250 μM) of peptide DDSK. For the detection, inventors used a secondary antibody anti human IgG conjugated with HRP and (3,3′,5,5′-Tetramethylbenzidine) TMB solution that was added for each well and incubated for 15-30 min. Equal volume of stopping solution (2 M H2SO4) was added to the plate and absorbance (optical density) of plate was read at 450 nm. The statistical analysis derived from 9 experiments. Values are mean±SEM. *P<0.05 MS vs CTRL (B) Linear representation of dose-response curve Values are mean±SEM. *P<0.05 MS vs CTRL.
FIGS. 7A, 7B, 7C and 7D: MS sera recognize specially receptor's peptides. […] Equal volume of stopping solution (2 M H2SO4) was added to the plate and absorbance (optical density) of plate was read at 450 nm. […]
A. Sera of Multiple Sclerosis patients and Control (200 μg) were incubated in absence (uncoated) or presence of 100 μM of DDSK peptide. […] Equal volume of stopping solution (2 M H2SO4) was added to the plate and absorbance (optical density) of plate was read at 450 nm. […]
Diluted peptide (20 μg/ml) was coated to the wells of a PVC microtiter plate and incubated at 4° C. overnight. […] For the detection, we used a secondary antibody anti human (recognized constant region of the patient antibody conjugated with HRP and (3,3′,5,5′-Tetramethylbenzidine) TMB solution that was added for each well and incubated for 15-30 min. Equal volume of stopping solution (2 M H2SO4) was added to the plate and absorbance (optical density) of plate was read at 450 nm.
To evaluate the peptide concentration to use for ELISA assay we performed a dose-response curve. […] (named DDSK in the figures) and the absorbance (optical density) of plate was read at 450 nm. […]
Background: ELISA stands for enzyme-linked immunosorbent assay.

Where [3] appears, read: 50 uM peptide 30 min, then IgMS 200 μg/ml 30 min.

In the case of DDSKVFKEGS, in test [1] (setting [3]), the “effect of peptide preincubation on IgMS-increased DUOX1/2 protein levels” value is “reverted the effect”, the “effect of peptide preincubation on IgMS-increased HaRas protein levels” value is “reverted the effect”, the “effect of peptide preincubation on IgMS-increased NOX3 protein levels” value is “reverted the effect” and the “effect of peptide preincubation on IgMS-increased P-ERK1/2 protein levels” value was “reverted the effect”. In addition, the “effect of peptide on protein levels (DUOX1/2, P-ERK1/2, NOX3, HaRas) in cells incubated with IgG from control subjects” value in test [1] (50 uM peptide, IgG control 200 μg/ml) was “did not significantly modify”. For the same sequence, in test [2] (100 μM peptide), the “binding of MS IgG to peptide respect to scrambled” value was “bind specifically”. The “peptide concentration at which MS IgG bind the peptide” value in test [2] (dose-response 50-100-250 μM peptide, absorbance 450 nm) was “higher than 50 μM”.
